The source made the active and inactive calls. How the calls were made is not given here.
Test system: CCRIS mutagenicity, Ames/micronucleus/aberration tests
Assay: CCRIS mutagenicity studies

Measured: mutagenic call

C#C[C@]1(O)CC[C@H]2[C@@H]3CCc4cc(O)ccc4[C@H]3CC[C@@]21C
active: End Point: IN VITRO CHROMOSOMAL ABERRATIONS, Test System: CHINESE HAMSTER CELL DON (22;XY), Metabolic Activation: NONE active; positive (ploidy changes) | End Point: IN VITRO CHROMOSOMAL ABERRATIONS, Test System: CHO CELLS, Metabolic Activation: NONE active; positive | End Point: IN VITRO CHROMOSOMAL ABERRATIONS, Test System: HUMAN (FEMALE) PERIPHERAL BLOOD LYMPHOCYTES, Metabolic Activation: RAT, LIVER, S-9, WITH NADP ADDITION active; positive (structural changes)
inactive: End Point: IN VITRO CHROMOSOMAL ABERRATIONS, Test System: HUMAN (FEMALE) PERIPHERAL BLOOD LYMPHOCYTES, Metabolic Activation: NONE inactive; negative | End Point: IN VITRO CHROMOSOMAL ABERRATIONS, Test System: HUMAN (FEMALE) PERIPHERAL BLOOD LYMPHOCYTES, Metabolic Activation: RAT, LIVER, S-9, NO NADP inactive; negative | End Point: IN VITRO CHROMOSOMAL ABERRATIONS, Test System: HUMAN PERIPHERAL LYMPHOCYTES, Metabolic Activation: NONE inactive; negative | End Point: IN VITRO CHROMOSOMAL ABERRATIONS, Test System: HUMAN PERIPHERAL LYMPHOCYTES, Metabolic Activation: RAT, LIVER, S-9, AROCLOR 1254 inactive; negative | End Point: IN VIVO MICRONUCLEUS, Test System: BONE MARROW POLYCHROMATIC ERYTHROCYTES, Species: MOUSE, Strain/Sex: NMRI/FEMALE, Route: INTRAGASTRIC inactive; negative | End Point: IN VIVO MICRONUCLEUS, Test System: BONE MARROW POLYCHROMATIC ERYTHROCYTES, Species: MOUSE, Strain/Sex: SWISS ALBINO, Route: ORAL (GAVAGE) inactive; negative | Test System: AMES SALMONELLA TYPHIMURIUM, Strain/Indicator: TA97, Metabolic Activation: HAMSTER, LIVER, S-9, AROCLOR 1254 (10 OR 30%), Method: PREINCUBATION inactive; negative | Test System: AMES SALMONELLA TYPHIMURIUM, Strain/Indicator: TA97, Metabolic Activation: NONE, Method: PREINCUBATION inactive; negative | Test System: AMES SALMONELLA TYPHIMURIUM, Strain/Indicator: TA97, Metabolic Activation: RAT, LIVER, S-9, AROCLOR 1254 (10%), Method: PREINCUBATION inactive; negative | Test System: AMES SALMONELLA TYPHIMURIUM, Strain/Indicator: TA97, Metabolic Activation: RAT, LIVER, S-9, AROCLOR 1254 (30%), Method: PREINCUBATION inactive; negative | Test System: AMES SALMONELLA TYPHIMURIUM, Strain/Indicator: TA98, Metabolic Activation: HAMSTER, LIVER, S-9, AROCLOR 1254 (10 OR 30%), Method: PREINCUBATION inactive; negative | Test System: AMES SALMONELLA TYPHIMURIUM, Strain/Indicator: TA98, Metabolic Activation: MOUSE, LIVER, S-9, Method: STANDARD PLATE inactive; negative | Test System: AMES SALMONELLA TYPHIMURIUM, Strain/Indicator: TA98, Metabolic Activation: NONE inactive; negative | Test System: AMES SALMONELLA TYPHIMURIUM, Strain/Indicator: TA98, Metabolic Activation: NONE, Method: PREINCUBATION inactive; negative | Test System: AMES SALMONELLA TYPHIMURIUM, Strain/Indicator: TA98, Metabolic Activation: NONE, Method: STANDARD PLATE inactive; negative | Test System: AMES SALMONELLA TYPHIMURIUM, Strain/Indicator: TA98, Metabolic Activation: RAT, LIVER, S-9, AROCLOR 1254 (10%), Method: PREINCUBATION inactive; negative | Test System: AMES SALMONELLA TYPHIMURIUM, Strain/Indicator: TA98, Metabolic Activation: RAT, LIVER, S-9, AROCLOR 1254 (30%), Method: PREINCUBATION inactive; negative | Test System: AMES SALMONELLA TYPHIMURIUM, Strain/Indicator: TA98, Metabolic Activation: RAT, LIVER, S-9, AROCLOR 1254, Method: STANDARD PLATE inactive; negative | Test System: AMES SALMONELLA TYPHIMURIUM, Strain/Indicator: TA98, Metabolic Activation: S-9 inactive; negative | Test System: AMES SALMONELLA TYPHIMURIUM, Strain/Indicator: TA100, Metabolic Activation: HAMSTER, LIVER, S-9, AROCLOR 1254 (10 OR 30%), Method: PREINCUBATION inactive; negative | Test System: AMES SALMONELLA TYPHIMURIUM, Strain/Indicator: TA100, Metabolic Activation: MOUSE, LIVER, S-9, Method: STANDARD PLATE inactive; negative | Test System: AMES SALMONELLA TYPHIMURIUM, Strain/Indicator: TA100, Metabolic Activation: NONE inactive; negative | Test System: AMES SALMONELLA TYPHIMURIUM, Strain/Indicator: TA100, Metabolic Activation: NONE, Method: PREINCUBATION inactive; negative | Test System: AMES SALMONELLA TYPHIMURIUM, Strain/Indicator: TA100, Metabolic Activation: NONE, Method: STANDARD PLATE inactive; negative | Test System: AMES SALMONELLA TYPHIMURIUM, Strain/Indicator: TA100, Metabolic Activation: RAT, LIVER, S-9, AROCLOR 1254 (10%), Method: PREINCUBATION inactive; negative | Test System: AMES SALMONELLA TYPHIMURIUM, Strain/Indicator: TA100, Metabolic Activation: RAT, LIVER, S-9, AROCLOR 1254 (30%), Method: PREINCUBATION inactive; negative | Test System: AMES SALMONELLA TYPHIMURIUM, Strain/Indicator: TA100, Metabolic Activation: RAT, LIVER, S-9, AROCLOR 1254, Method: STANDARD PLATE inactive; negative | Test System: AMES SALMONELLA TYPHIMURIUM, Strain/Indicator: TA100, Metabolic Activation: S-9 inactive; negative | Test System: AMES SALMONELLA TYPHIMURIUM, Strain/Indicator: TA1535, Metabolic Activation: HAMSTER, LIVER, S-9, AROCLOR 1254 (10 OR 30%), Method: PREINCUBATION inactive; negative | Test System: AMES SALMONELLA TYPHIMURIUM, Strain/Indicator: TA1535, Metabolic Activation: MOUSE, LIVER, S-9, Method: STANDARD PLATE inactive; negative | Test System: AMES SALMONELLA TYPHIMURIUM, Strain/Indicator: TA1535, Metabolic Activation: NONE inactive; negative | Test System: AMES SALMONELLA TYPHIMURIUM, Strain/Indicator: TA1535, Metabolic Activation: NONE, Method: PREINCUBATION inactive; negative | Test System: AMES SALMONELLA TYPHIMURIUM, Strain/Indicator: TA1535, Metabolic Activation: NONE, Method: STANDARD PLATE inactive; negative | Test System: AMES SALMONELLA TYPHIMURIUM, Strain/Indicator: TA1535, Metabolic Activation: RAT, LIVER, S-9, AROCLOR 1254 (10%), Method: PREINCUBATION inactive; negative | Test System: AMES SALMONELLA TYPHIMURIUM, Strain/Indicator: TA1535, Metabolic Activation: RAT, LIVER, S-9, AROCLOR 1254 (30%), Method: PREINCUBATION inactive; negative | Test System: AMES SALMONELLA TYPHIMURIUM, Strain/Indicator: TA1535, Metabolic Activation: RAT, LIVER, S-9, AROCLOR 1254, Method: STANDARD PLATE inactive; negative | Test System: AMES SALMONELLA TYPHIMURIUM, Strain/Indicator: TA1535, Metabolic Activation: S-9 inactive; negative | Test System: AMES SALMONELLA TYPHIMURIUM, Strain/Indicator: TA1537, Metabolic Activation: MOUSE, LIVER, S-9, Method: STANDARD PLATE inactive; negative | Test System: AMES SALMONELLA TYPHIMURIUM, Strain/Indicator: TA1537, Metabolic Activation: NONE inactive; negative | Test System: AMES SALMONELLA TYPHIMURIUM, Strain/Indicator: TA1537, Metabolic Activation: NONE, Method: STANDARD PLATE inactive; negative | Test System: AMES SALMONELLA TYPHIMURIUM, Strain/Indicator: TA1537, Metabolic Activation: RAT, LIVER, S-9, AROCLOR 1254, Method: STANDARD PLATE inactive; negative | Test System: AMES SALMONELLA TYPHIMURIUM, Strain/Indicator: TA1537, Metabolic Activation: S-9 inactive; negative | Test System: AMES SALMONELLA TYPHIMURIUM, Strain/Indicator: TA1538, Metabolic Activation: MOUSE, LIVER, S-9, Method: STANDARD PLATE inactive; negative | Test System: AMES SALMONELLA TYPHIMURIUM, Strain/Indicator: TA1538, Metabolic Activation: NONE, Method: STANDARD PLATE inactive; negative | Test System: AMES SALMONELLA TYPHIMURIUM, Strain/Indicator: TA1538, Metabolic Activation: RAT, LIVER, S-9, AROCLOR 1254, Method: STANDARD PLATE inactive; negative | Test System: E. COLI, Strain/Indicator: WP2 UVRA, Metabolic Activation: HAMSTER, LIVER, S-9, AROCLOR 1254, Method: STANDARD PLATE inactive; negative | Test System: E. COLI, Strain/Indicator: WP2 UVRA, Metabolic Activation: HAMSTER, LIVER, S-9, Method: STANDARD PLATE inactive; negative | Test System: E. COLI, Strain/Indicator: WP2 UVRA, Metabolic Activation: MOUSE, LIVER, S-9, AROCLOR 1254, Method: STANDARD PLATE inactive; negative | Test System: E. COLI, Strain/Indicator: WP2 UVRA, Metabolic Activation: MOUSE, LIVER, S-9, Method: STANDARD PLATE inactive; negative | Test System: E. COLI, Strain/Indicator: WP2 UVRA, Metabolic Activation: NONE inactive; negative | Test System: E. COLI, Strain/Indicator: WP2 UVRA, Metabolic Activation: NONE, Method: STANDARD PLATE inactive; negative | Test System: E. COLI, Strain/Indicator: WP2 UVRA, Metabolic Activation: RAT, LIVER, S-9, AROCLOR 1254, Method: STANDARD PLATE inactive; negative | Test System: E. COLI, Strain/Indicator: WP2 UVRA, Metabolic Activation: RAT, LIVER, S-9, Method: STANDARD PLATE inactive; negative | Test System: E. COLI, Strain/Indicator: WP2 UVRA, Metabolic Activation: S-9 inactive; negative

— PubChem BioAssay AID1259407 (Chemical Carcinogenesis Research Information System (CCRIS), 2018)
